From US11352604B2, “Method of making cardiomyocytes from human pluripotent cells” (Wisconsin Alumni Research Foundation, priority 2016, dated 2022)

Columns and labels:
[1] = test system: hPSC-CMs; assay: Cardiomyocyte yield and purity in GiWi differentiation; format: cell-based, human; details: day 30, pI:C alone vs untreated
Method: To differentiate cardiomyocytes from hPSCs, the small molecule temporal modulation of the Wnt pathway (GiWi) monolayer protocol was used essentially as previously described (Lian et al., 2012). Human embryonic or induced pluripotent stem cells were dissociated with Versene (Thermo Fisher Scientific) for 6 minutes at 37° C., pipetted up and down 40 times, counted with a hemocytometer, spun down at 100×g for 5 minutes, and resuspended and seeded for differentiation at 1.5 million cells per well in 6 well plates or 0.4 million per well in 12 well plates in mTeSR® on stem-cell verified Matrigel® (WiCell) containing 10 μM Y-27632 ROCK-inhibitor (Tocris). After four days in mTeSR® (WiCell), at which point cells grew to 100 percent confluence, medium was switched to RPMI supplemented with B27 supplement not containing insulin (Thermo Fisher Scientific) and containing 12 μM of the Wnt agonist CHIR99021 (Tocris) for exactly 24 hours. Media was then changed to RPMI supplemented with B27 not containing insulin for exactly 48 hours. Then medium was then switched at day 3 to RPMI supplemented with B27 not containing insulin and containing 5 μM IWP2 (Tocris). At day 5, media was switched to RPMI supplemented with B27 not containing insulin for two days. At day 7 and every three days afterward, medium was replaced with RPMI supplemented with B27 containing insulin (Thermo Fisher Scientific). […]

[2] = test system: DBT, ATP5F1, SLC25A4; assay: Quantitative immunostaining of upregulated metabolic proteins; format: cell-based, human; details: hPSC-CMs from pI:C-treated vs untreated progenitors
Method: For internal antigens, cells were rinsed of media two times in PBS, fixed for 10 minutes in 4% paraformaldehyde at RT, rinsed three times again in PBS, then blocked for 1 hour at room temperature (RT) in Licor blocking buffer containing 0.2% Triton x-100 (Sigma). Blocking solution was aspirated and antibodies added overnight at 4° C. in fresh blocking/permeabilization solution. Antibodies used were mouse cardiac troponin T (Thermo Fisher Scientific, 1:200), rabbit WT1 (Abcam 1:200), mouse smooth muscle myosin heavy chain (Abcam, 1:200), goat Jag1 c-terminal domain (1:200 Abcam), MMP1 (Abcam, 1:200), mouse cardiac actin (Sigma, 1:200), rabbit SLC25A4 (Proteintech, 1:100), rabbit DBT (Proteintech, 1:100), rabbit ATP5F1 (Proteintech, 1:100), rabbit Irx4 (Abcam, 1:200), goat nkx2.5 (Santa Cruz, 1:50), mouse connexin 40 (Thermo Fisher Scientific, 1:200), and fibroblast-specific protein (Abcam, 1:100). After primary and secondary antibodies, cells were rinsed two times in PBS with 0.2% triton x-100. Donkey secondaries conjugated to Alexa Fluor dyes were used at 1:1000 and incubated at RT for 1 h. DAPI or Hoechst was used to visualize nuclei. Cells were imaged either on an EVOS system in wells (Thermo Fisher Scientific) or a Leica confocal microscope in cover glass or ibidi 8-well microslides. Image J was used to quantify cell area by outer boundaries of cTnT staining.

For polyinosinic-polycytidylic acid [pI:C], the yield of cardiomyocytes [1] was “more than double the yield” and the “expression of DBT, ATP5F1 and SLC25A4” value [2] was “increased expression”.
